Common to all, as to format: cell-based
In one experiment the test system is E. coli DH5α. Put plainly: Antibacterial activity: MIC and growth curve against E. coli DH5α in 96-well plate. As to conditions: minimal inhibitory concentration against E. coli DH5α; 96-well plate, 5×10^5 CFU/mL, 37° C., judged after 8 h. Summed up:
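MIC taken as lowest protein level with no bacterial growth, tracked by A600 every 30 min during 37 °C, 175 rpm culture. Two-fold protein series 50-12.5 μg/mL final, triplicate wells, against 5×10^5 CFU/mL of LB-washed mid-log cells.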

In the next experiment the test system is E. coli BL21. Briefly: MIC against Gram-negative bacteria: E. coli BL21. The conditions noted are these: for MIC / MIC (μg/mL) E. coli BL21: E. coli BL21, 10 h cultivation at 37° C.; for MIC (μg/mL) E. coli BL21 / MIC E. coli BL21: 5×10^5 CFU/mL; for MIC E. coli BL21: 96-well plate, 37° C., 10 h. Summed up: (§1)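 Broth microdilution, LB medium, final inoculum 5×10^5 CFU/mL from McFarland 0.5 cultures. Recombinant human EGF domain proteins tested in two-fold steps, n=3. MIC: lowest concentration, no growth.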

Another experiment deals with Pseudomonas aeruginosa. Briefly: MIC against Gram-negative bacteria: Pseudomonas aeruginosa. As to conditions: for MIC / MIC (μg/mL) P. aeruginosa: P. aeruginosa, 10 h cultivation at 37° C.; for MIC (μg/mL) P. aeruginosa / MIC P. aeruginosa: 5×10^5 CFU/mL; for MIC P. aeruginosa: 96-well plate, 37° C., 10 h. Summed up:
as §1

In the next experiment the test system is Klebsiella pneumonia. Put plainly: MIC against Gram-negative bacteria: Klebsiella pneumonia. The conditions noted are these: for MIC / MIC (μg/mL) K. pneumonia: K. pneumonia, 10 h cultivation at 37° C.; for MIC (μg/mL) K. pneumonia / MIC K. pneumonia: 5×10^5 CFU/mL; for MIC K. pneumonia: 96-well plate, 37° C., 10 h. Summed up:
as §1

A further experiment has as its system Enterobacter cloacae. Put plainly: MIC against Gram-negative bacteria: Enterobacter cloacae. As to conditions: for MIC / MIC (μg/mL) E. cloacae: E. cloacae, 10 h cultivation at 37° C.; for MIC (μg/mL) E. cloacae / MIC E. cloacae: 5×10^5 CFU/mL; for MIC E. cloacae: 96-well plate, 37° C., 10 h. Summed up:
as §1

The next experiment concerns Aeromonas hydrophila. Put plainly: MIC against Gram-negative bacteria: Aeromonas hydrophila. The conditions noted are these: for MIC / MIC (μg/mL) A. hydrophila: A. hydrophila, 10 h cultivation at 37° C.; for MIC (μg/mL) A. hydrophila / MIC A. hydrophila: 5×10^5 CFU/mL; for MIC A. hydrophila: 96-well plate, 37° C., 10 h. The gist of the method: as §1
For a further experiment, the system named is Citrobacter diversus. Put plainly: MIC against Gram-negative bacteria: Citrobacter diversus. The conditions noted are these: for MIC / MIC (μg/mL) C. diversus: C. diversus, 10 h cultivation at 37° C.; for MIC (μg/mL) C. diversus / MIC C. diversus: 5×10^5 CFU/mL; for MIC C. diversus: 96-well plate, 37° C., 10 h. Summed up: as §1
The subject of the next experiment is Moraxella catarrhalis. Put plainly: MIC against Gram-negative bacteria: Moraxella catarrhalis. As to conditions: for MIC / MIC (μg/mL) M. catarrhalis: M. catarrhalis, 10 h cultivation at 37° C.; for MIC (μg/mL) M. catarrhalis / MIC M. catarrhalis: 5×10^5 CFU/mL; for MIC M. catarrhalis: 96-well plate, 37° C., 10 h. The gist of the method:
as §1

The next experiment has as its system Proteus mirabilis. Briefly: MIC against Gram-negative bacteria: Proteus mirabilis. As to conditions: for MIC / MIC (μg/mL) P. mirabilis: P. mirabilis, 10 h cultivation at 37° C.; for MIC (μg/mL) P. mirabilis / MIC P. mirabilis: 5×10^5 CFU/mL; for MIC P. mirabilis: 96-well plate, 37° C., 10 h. The gist of the method: as §1
For a further experiment, the system named is Proteus vulgaris. Put plainly: MIC against Gram-negative bacteria: Proteus vulgaris. As to conditions: for MIC / MIC (μg/mL) P. vulgaris: P. vulgaris, 10 h cultivation at 37° C.; for MIC (μg/mL) P. vulgaris / MIC P. vulgaris: 5×10^5 CFU/mL; for MIC P. vulgaris: 96-well plate, 37° C., 10 h. Summed up:
as §1

The test system of a further experiment is Serratia marcescens. Briefly: MIC against Gram-negative bacteria: Serratia marcescens. The conditions noted are these: for MIC / MIC (μg/mL) S. marcescens: S. marcescens, 10 h cultivation at 37° C.; for MIC (μg/mL) S. marcescens / MIC S. marcescens: 5×10^5 CFU/mL; for MIC S. marcescens: 96-well plate, 37° C., 10 h. The gist of the method:
as §1

The record followed here is patent US9833497B2, “Human originated EGF domain proteins and use of the same” (CHENGDU SOURCEBIO LIMITED-LIABILITY COMPANY, priority 2013, dated 2017).

Regarding “PRT906 (LVHWCDSSPCKNGGKCWQTHTQYRCECPSGWTGLYCD; listed as Homo sapiens)”, the MIC (commonly the lowest concentration that inhibits growth of the organism) against E. coli DH5α was determined as 50 µg/mL; in the experiment with E. coli BL21 it was 25 µg/mL; in the experiment on Pseudomonas aeruginosa, 12.5 µg/mL; against Klebsiella pneumonia it was 25 µg/mL; in the experiment with Enterobacter cloacae, 50 µg/mL; in the experiment with Aeromonas hydrophila it was 12.5 µg/mL. Also, the MIC was found to be 25 µg/mL against Citrobacter diversus; 50 µg/mL in the experiment on Moraxella catarrhalis; 25 µg/mL in the experiment on Proteus mirabilis; 12.5 µg/mL with Proteus vulgaris; 25 µg/mL against Serratia marcescens.
Turning to “PRT826 (FGVGCEHTCSCRNGGLCHASNGSCSCGLGWTGRHCE; listed as Homo sapiens)”, the MIC in the experiment with E. coli DH5α amounted to 12.5 µg/mL. Moreover, the “MIC (μg/mL) E. coli BL21” value in the experiment with E. coli BL21 stood at 50 µg/mL. The “MIC (μg/mL) P. aeruginosa” value in the experiment with Pseudomonas aeruginosa is 25 µg/mL. For the same substance, the “MIC (μg/mL) K. pneumonia” value against Klebsiella pneumonia came to 100 µg/mL. Moreover, in the experiment with Enterobacter cloacae, the “MIC (μg/mL) E. cloacae” value came to 50 µg/mL. The “MIC (μg/mL) A. hydrophila” value against Aeromonas hydrophila was 12.5 µg/mL. Besides, the “MIC (μg/mL) C. diversus” value with Citrobacter diversus worked out at 12.5 µg/mL. Also, the “MIC (μg/mL) M. catarrhalis” value against Moraxella catarrhalis stood at 25 µg/mL. Moreover, the “MIC (μg/mL) P. mirabilis” value against Proteus mirabilis came to 12.5 µg/mL. Besides, in the experiment on Proteus vulgaris, the “MIC (μg/mL) P. vulgaris” value worked out at 12.5 µg/mL. Also, the “MIC (μg/mL) S. marcescens” value against Serratia marcescens was determined as 12.5 µg/mL.
In the case of “PRT1005 (LMDLCAQKPCPRNSHCLQTGPSFHCLCLQGWTGPLCN; listed as Homo sapiens)”, the MIC came out at 50 µg/mL in the experiment with E. coli DH5α; 12.5 µg/mL in the experiment on E. coli BL21; 50 µg/mL against Pseudomonas aeruginosa; 12.5 µg/mL in the experiment on Klebsiella pneumonia; 25 µg/mL against Enterobacter cloacae; 50 µg/mL against Aeromonas hydrophila. The MIC against Citrobacter diversus was 25 µg/mL; in the experiment with Moraxella catarrhalis it was 12.5 µg/mL; in the experiment with Proteus mirabilis, 25 µg/mL; against Proteus vulgaris it was 50 µg/mL; against Serratia marcescens, 25 µg/mL.
For the substance “PRT209 (DVDECAQALHDCRPSQDCHNLPGSYQCTCPDGYR; listed as Homo sapiens)”, the MIC in the experiment with E. coli DH5α was found to be 12.5 µg/mL. Moreover, in the experiment on E. coli BL21, the “MIC (μg/mL) E. coli BL21” value stood at 12.5 µg/mL. Moreover, the “MIC (μg/mL) P. aeruginosa” value in the experiment on Pseudomonas aeruginosa was found to be 12.5 µg/mL. Moreover, the “MIC (μg/mL) K. pneumonia” value against Klebsiella pneumonia turned out to be 25 µg/mL. Also, the “MIC (μg/mL) E. cloacae” value against Enterobacter cloacae is 12.5 µg/mL. For the same substance, in the experiment on Aeromonas hydrophila, the “MIC (μg/mL) A. hydrophila” value turned out to be 12.5 µg/mL. The “MIC (μg/mL) C. diversus” value against Citrobacter diversus stood at 12.5 µg/mL. Also, in the experiment with Moraxella catarrhalis, the “MIC (μg/mL) M. catarrhalis” value was determined as 12.5 µg/mL. The “MIC (μg/mL) P. mirabilis” value against Proteus mirabilis turned out to be 12.5 µg/mL. The “MIC (μg/mL) P. vulgaris” value with Proteus vulgaris worked out at 50 µg/mL. Further, in the experiment with Serratia marcescens, the “MIC (μg/mL) S. marcescens” value came to 12.5 µg/mL.
“PRT652 (DLDECAFPGVCPSGVCTNTAGSFSCKDCDGGYRPSPLGDSCE; listed as Homo sapiens)” registered an MIC against E. coli DH5α of 12.5 µg/mL. Besides, the “MIC E. coli BL21” value against E. coli BL21 came to 25 µg/mL. Besides, the “MIC P. aeruginosa” value in the experiment with Pseudomonas aeruginosa came out at 50 µg/mL. For the same substance, the “MIC K. pneumonia” value in the experiment with Klebsiella pneumonia was 25 µg/mL. In addition, the “MIC E. cloacae” value against Enterobacter cloacae turned out to be 12.5 µg/mL. Also, the “MIC A. hydrophila” value with Aeromonas hydrophila amounted to 25 µg/mL. Besides, in the experiment on Citrobacter diversus, the “MIC C. diversus” value amounted to 50 µg/mL. Further, the “MIC M. catarrhalis” value against Moraxella catarrhalis is 25 µg/mL. Also, the “MIC P. mirabilis” value in the experiment with Proteus mirabilis was found to be 12.5 µg/mL. Also, the “MIC P. vulgaris” value against Proteus vulgaris is 25 µg/mL. In addition, the “MIC S. marcescens” value against Serratia marcescens came to 50 µg/mL.
“PRT599 (CECDPDGTISGGICVSHSDPALGSVAGQCLCKENVEGAKCDQCKPNHYGLSATDPLGCQP; listed as Homo sapiens)”: the MIC with E. coli DH5α turned out to be 12.5 µg/mL. The “MIC E. coli BL21” value against E. coli BL21 was found to be 25 µg/mL. Besides, the “MIC P. aeruginosa” value with Pseudomonas aeruginosa came to 50 µg/mL. The “MIC K. pneumonia” value against Klebsiella pneumonia worked out at 12.5 µg/mL. In addition, the “MIC E. cloacae” value with Enterobacter cloacae amounted to 50 µg/mL. Further, in the experiment with Aeromonas hydrophila, the “MIC A. hydrophila” value was 12.5 µg/mL. For the same substance, in the experiment with Citrobacter diversus, the “MIC C. diversus” value came to 50 µg/mL. Besides, the “MIC M. catarrhalis” value against Moraxella catarrhalis worked out at 12.5 µg/mL. The “MIC P. mirabilis” value against Proteus mirabilis was found to be 50 µg/mL. For the same substance, the “MIC P. vulgaris” value against Proteus vulgaris is 12.5 µg/mL. For the same substance, the “MIC S. marcescens” value in the experiment on Serratia marcescens was 50 µg/mL.
